Laboratory results taken from ChEMBL document CHEMBL3885881, “DrugMatrix”.

Organism: Rattus norvegicus
Experiment: DrugMatrix - Regimen: Daily Repeat
Assay type: toxicity, organism-based, Sprague-Dawley
Parameters: regimen Daily Repeat, gender Male, age 6-8 weeks
Conditions: in vivo, po, route oral GAVAGE, vehicle .5 % CMC; for ABSOLUTE BASOPHIL / ABSOLUTE EOSINOPHIL / ABSOLUTE LYMPHOCYTE / ABSOLUTE MONOCYTE / ABSOLUTE SEGMENTED NEUTROPHIL / BASOPHIL / EOSINOPHIL / ERYTHROCYTE COUNT / HEMATOCRIT / HEMOGLOBIN / LEUKOCYTE COUNT / LYMPHOCYTE / MEAN CORPUSCULAR HEMOGLOBIN / MEAN CORPUSCULAR HEMOGLOBIN CONCENTRATION / MEAN CORPUSCULAR VOLUME / MONOCYTE / NEUTROPHIL / NUCLEATED RED BLOOD CELLS / PLATELET COUNT: tissue Blood; for ALANINE AMINOTRANSFERASE / ALBUMIN / ALKALINE PHOSPHATASE / ASPARTATE AMINOTRANSFERASE / BLOOD UREA NITROGEN / CARBON DIOXIDE / CHLORIDE / CHOLESTEROL / CREATINE PHOSPHOKINASE / CREATININE / GLUCOSE / LACTATE DEHYDROGENASE / LIPASE / PHOSPHORUS / POTASSIUM / SODIUM / TOTAL BILIRUBIN / TOTAL PROTEIN / URIC ACID: tissue Plasma
[1] = 0 mg/kg, 72 h, dose level Control, time 3 day
[2] = 0 mg/kg, 120 h, dose level Control, time 5 day
[3] = 1 mg/kg, 72 h, dose level Low, time 3 day
[4] = 1 mg/kg, 120 h, dose level Low, time 5 day

OC(CCN1CCCCC1)(c1ccccc1)C1CCCCC1 (configuration not stated) [TRIHEXYPHENIDYL]
ABSOLUTE BASOPHIL [1]: 0 CELLS/uL
ABSOLUTE EOSINOPHIL [1]: 0 CELLS/uL
ABSOLUTE LYMPHOCYTE [1]: 10913.67 CELLS/uL
ABSOLUTE MONOCYTE [1]: 85.33 CELLS/uL
ABSOLUTE SEGMENTED NEUTROPHIL [1]: 1401 CELLS/uL
BASOPHIL [1]: 0%
EOSINOPHIL [1]: 0%
ERYTHROCYTE COUNT [1]: 5.57 x10E6/uL
HEMATOCRIT [1]: 35.58%
HEMOGLOBIN [1]: 13.8 G/DL
LEUKOCYTE COUNT [1]: 12.4 x10E3/uL
LYMPHOCYTE [1]: 88%
MEAN CORPUSCULAR HEMOGLOBIN [1]: 24.78 pg
MEAN CORPUSCULAR HEMOGLOBIN CONCENTRATION [1]: 38.82 G/DL
MEAN CORPUSCULAR VOLUME [1]: 63.88 fL
MONOCYTE [1]: 0.67%
NEUTROPHIL [1]: 11.33%
NUCLEATED RED BLOOD CELLS [1]: 0 /100WBC
PLATELET COUNT [1]: 1162.33 x10E3/uL
ALANINE AMINOTRANSFERASE [1]: 53 u/L
ALBUMIN [1]: 4.17 G/DL
ALKALINE PHOSPHATASE [1]: 374.5 u/L
ASPARTATE AMINOTRANSFERASE [1]: 89.5 u/L
BLOOD UREA NITROGEN [1]: 16.33 mg/dL
CARBON DIOXIDE [1]: 29.17 mmol/L
CHLORIDE [1]: 97.67 MEQ/L
CHOLESTEROL [1]: 77 mg/dL
CREATINE PHOSPHOKINASE [1]: 464.83 u/L
CREATININE [1]: 0.14 mg/dL
GLUCOSE [1]: 164 mg/dL
LACTATE DEHYDROGENASE [1]: 155.5 u/L
LIPASE [1]: 9.17 u/L
PHOSPHORUS [1]: 12.4 mg/dL
POTASSIUM [1]: 6.91 MEQ/L
SODIUM [1]: 141.47 MEQ/L
TOTAL BILIRUBIN [1]: 0.2 mg/dL
TOTAL PROTEIN [1]: 5.95 G/DL
URIC ACID [1]: 1.72 mg/dL
ABSOLUTE BASOPHIL [2]: 0 CELLS/uL
ABSOLUTE EOSINOPHIL [2]: 20.5 CELLS/uL
ABSOLUTE LYMPHOCYTE [2]: 13871.67 CELLS/uL
ABSOLUTE MONOCYTE [2]: 60.5 CELLS/uL
ABSOLUTE SEGMENTED NEUTROPHIL [2]: 980.67 CELLS/uL
BASOPHIL [2]: 0%
EOSINOPHIL [2]: 0.17%
ERYTHROCYTE COUNT [2]: 5.65 x10E6/uL
HEMATOCRIT [2]: 35.63%
HEMOGLOBIN [2]: 14.08 G/DL
LEUKOCYTE COUNT [2]: 14.93 x10E3/uL
LYMPHOCYTE [2]: 92.83%
MEAN CORPUSCULAR HEMOGLOBIN [2]: 24.97 pg
MEAN CORPUSCULAR HEMOGLOBIN CONCENTRATION [2]: 39.55 G/DL
MEAN CORPUSCULAR VOLUME [2]: 63.13 fL
MONOCYTE [2]: 0.33%
NEUTROPHIL [2]: 6.67%
NUCLEATED RED BLOOD CELLS [2]: 0 /100WBC
PLATELET COUNT [2]: 1248.17 x10E3/uL
ALANINE AMINOTRANSFERASE [2]: 45.17 u/L
ALBUMIN [2]: 4.27 G/DL
ALKALINE PHOSPHATASE [2]: 405.67 u/L
ASPARTATE AMINOTRANSFERASE [2]: 74.17 u/L
BLOOD UREA NITROGEN [2]: 15.5 mg/dL
CARBON DIOXIDE [2]: 30.17 mmol/L
CHLORIDE [2]: 100.67 MEQ/L
CHOLESTEROL [2]: 57 mg/dL
CREATINE PHOSPHOKINASE [2]: 239.5 u/L
CREATININE [2]: 0.17 mg/dL
GLUCOSE [2]: 165.67 mg/dL
LACTATE DEHYDROGENASE [2]: 90.5 u/L
LIPASE [2]: 8.83 u/L
PHOSPHORUS [2]: 12.32 mg/dL
POTASSIUM [2]: 7.03 MEQ/L
SODIUM [2]: 142.65 MEQ/L
TOTAL BILIRUBIN [2]: 0.18 mg/dL
TOTAL PROTEIN [2]: 6.03 G/DL
URIC ACID [2]: 1.98 mg/dL
ABSOLUTE BASOPHIL [3]: 0 CELLS/uL
ABSOLUTE EOSINOPHIL [3]: 0 CELLS/uL
ABSOLUTE LYMPHOCYTE [3]: 14884.67 CELLS/uL
ABSOLUTE MONOCYTE [3]: 0 CELLS/uL
ABSOLUTE SEGMENTED NEUTROPHIL [3]: 848.67 CELLS/uL
BASOPHIL [3]: 0%
EOSINOPHIL [3]: 0%
ERYTHROCYTE COUNT [3]: 5.35 x10E6/uL
HEMATOCRIT [3]: 35.77%
HEMOGLOBIN [3]: 14.27 G/DL
LEUKOCYTE COUNT [3]: 15.73 x10E3/uL
LYMPHOCYTE [3]: 94.33%
MEAN CORPUSCULAR HEMOGLOBIN [3]: 26.7 pg
MEAN CORPUSCULAR HEMOGLOBIN CONCENTRATION [3]: 39.87 G/DL
MEAN CORPUSCULAR VOLUME [3]: 66.97 fL
MONOCYTE [3]: 0%
NEUTROPHIL [3]: 5.67%
NUCLEATED RED BLOOD CELLS [3]: 0 /100WBC
PLATELET COUNT [3]: 1285.67 x10E3/uL
ALANINE AMINOTRANSFERASE [3]: 51.33 u/L
ALBUMIN [3]: 4.33 G/DL
ALKALINE PHOSPHATASE [3]: 449.67 u/L
ASPARTATE AMINOTRANSFERASE [3]: 84 u/L
BLOOD UREA NITROGEN [3]: 18.67 mg/dL
CARBON DIOXIDE [3]: 27.33 mmol/L
CHLORIDE [3]: 99.67 MEQ/L
CHOLESTEROL [3]: 76 mg/dL
CREATINE PHOSPHOKINASE [3]: 344.67 u/L
CREATININE [3]: 0.14 mg/dL
GLUCOSE [3]: 149.33 mg/dL
LACTATE DEHYDROGENASE [3]: 254.67 u/L
LIPASE [3]: 9.33 u/L
PHOSPHORUS [3]: 13.83 mg/dL
POTASSIUM [3]: 6.89 MEQ/L
SODIUM [3]: 145.2 MEQ/L
TOTAL BILIRUBIN [3]: 0.17 mg/dL
TOTAL PROTEIN [3]: 6.23 G/DL
URIC ACID [3]: 1.77 mg/dL
ABSOLUTE BASOPHIL [4]: 0 CELLS/uL
ABSOLUTE EOSINOPHIL [4]: 0 CELLS/uL
ABSOLUTE LYMPHOCYTE [4]: 16182.67 CELLS/uL
ABSOLUTE MONOCYTE [4]: 124 CELLS/uL
ABSOLUTE SEGMENTED NEUTROPHIL [4]: 1360 CELLS/uL
BASOPHIL [4]: 0%
EOSINOPHIL [4]: 0%
ERYTHROCYTE COUNT [4]: 5.66 x10E6/uL
HEMATOCRIT [4]: 35.77%
HEMOGLOBIN [4]: 14.3 G/DL
LEUKOCYTE COUNT [4]: 17.67 x10E3/uL
LYMPHOCYTE [4]: 91.67%
MEAN CORPUSCULAR HEMOGLOBIN [4]: 25.23 pg
MEAN CORPUSCULAR HEMOGLOBIN CONCENTRATION [4]: 40 G/DL
MEAN CORPUSCULAR VOLUME [4]: 63.13 fL
MONOCYTE [4]: 0.67%
NEUTROPHIL [4]: 7.67%
NUCLEATED RED BLOOD CELLS [4]: 0.33 /100WBC
PLATELET COUNT [4]: 1182.33 x10E3/uL
ALANINE AMINOTRANSFERASE [4]: 45.67 u/L
ALBUMIN [4]: 4.2 G/DL
ALKALINE PHOSPHATASE [4]: 394 u/L
ASPARTATE AMINOTRANSFERASE [4]: 78.67 u/L
BLOOD UREA NITROGEN [4]: 15.67 mg/dL
CARBON DIOXIDE [4]: 26.67 mmol/L
CHLORIDE [4]: 101 MEQ/L
CHOLESTEROL [4]: 73.33 mg/dL
CREATINE PHOSPHOKINASE [4]: 379.33 u/L
CREATININE [4]: 0.13 mg/dL
GLUCOSE [4]: 139.67 mg/dL
LACTATE DEHYDROGENASE [4]: 370.67 u/L
LIPASE [4]: 9 u/L
PHOSPHORUS [4]: 12.93 mg/dL
POTASSIUM [4]: 6.84 MEQ/L
SODIUM [4]: 143 MEQ/L
TOTAL BILIRUBIN [4]: 0.17 mg/dL
TOTAL PROTEIN [4]: 5.9 G/DL
URIC ACID [4]: 1.3 mg/dL
